Here are results for one molecule from patent publication US6057359A, “Spontaneously dispersible concentrates comprising esters of baccatin-III compounds having antitumor and antiviral activity” (Marigen S.A., priority 1997, dated 2000).

In series [1] the test system is LEUKEMIA DAUDI-LINE. In words: Vitality/proliferation test (Tritium), leukemia Daudi-line. The series is classed as cell-based, human. The note with it: controls 23'090 cpm. From the text:
(§1) 4.0 Comparative assays with human tumor cell lines
(§2) VITALITY TEST/1%-MARIGENOL-CONCENTRATE
(§3) 1 × 10^4 cells per well
(§4) Proliferation test (Tritium: 1 μCi/well H^+)

Series [2] deals with LEUKEMIA K 562. In words: Vitality/proliferation test (Tritium), leukemia K 562. The series is classed as cell-based, human. The note with it: controls 50'037 cpm.
Text: as §1, §2, §3, §4

The subject of series [3] is Py6 cells (Virus transformed 3T3 mouse-fibroblasts). In words: Test of cell toxicity / cytotoxicity of MARIGENOL concentrates on Py6 cells (plaque assay, serial dilution). The class given is cell-based. The protocol:
A biological assay system using microtiter plates and serial dilutions has been developed. Batches of 10^4 tumour cells per ml were set up in culture medium RPMI 1640 and inactivated with 10% of fetal calf serum (GIBCO); they are spread at a density low enough to enable them to grow during the assay, in non-confluent monolayers. Samples are added after 6 to 24 hours, with 100 μl per row, to which 100 μl of medium are added in the first well. Half of this mixture is withdrawn, transferred into the next well and again treated with 100 μl of medium, etc.
[…] They are then stained and fixed using 0.1% crystal violet (Fluka, Buchs) in a solution of 70% of methanol, 1% of formaldehyde and 29% of water. The samples are evaluated under the microscope, magnification 300×. The greatest cytotoxic dilution is determined. The samples can also be evaluated quantitatively by means of scanning and absorption measurement in a spectrophotometer.
N.B.: On the subject of the eternalized Py6-cells cf.: "Biochemistry", Coordinating Editor Geoffrey L. Zubay, Addison-Wesley Publishing Company, 1983, p.1079.

For series [4] the following is noted: cited from earlier work.

In the case of `CC(=O)O[C@H]1C(=O)[C@@]2(C)[C@H]([C@H](OC(=O)c3ccccc3)[C@]3(O)C[C@H](O)C(C)=C1C3(C)C)[C@]1(OC(C)=O)CO[C@@H]1C[C@@H]2O` [BACCATIN III-A.S., Baccatin-III], the Proliferation test % in series [1] (10^-3) came out at 3.0%; in series [1] (10^-4) it was 3.4%; in series [1] (10^-5) it was 61.4%; in series [2] (10^-3) it was 1.3%; in series [2] (10^-4), 1.5%; in series [2] (10^-5), 6.3%. Moreover, the Proliferation test cpm stood at 708 cpm in series [1] (10^-3), 795 cpm in series [1] (10^-4), 680 cpm in series [2] (10^-3) and 757 cpm in series [2] (10^-4). Further, the “in dilution active up to 1: (calculated on active substance content, A.S.)” value in series [3] (24 h exposure) is reported as 12.8 Mio; in series [3] (48 h exposure), 12.8 Mio; in series [3] (72 h exposure), 100 Mio. For the same molecule, in series [3] (72 h exposure, dilution of ME 1:100, given in Mio.), the “in dilution active up to 1: (microemulsion ME 1:100)” value worked out at 1 Mio. In series [4], the solubility in water result is given as “very low”.
